Experimental findings from patent US5981521A, “Tetrahydroisoquinoline derivatives as LHRH antagonists” (Abbott Laboratories, priority 1998, dated 1999) are described below.

Counter-ions that a name gives are not always drawn.

The target in one assay is T1, LHRH rat pituitary receptor (Rattus norvegicus, UniProt P30969).
T1 construct: from tissue; host or cells: rat pituitary
T1 sequence (P30969 1-327): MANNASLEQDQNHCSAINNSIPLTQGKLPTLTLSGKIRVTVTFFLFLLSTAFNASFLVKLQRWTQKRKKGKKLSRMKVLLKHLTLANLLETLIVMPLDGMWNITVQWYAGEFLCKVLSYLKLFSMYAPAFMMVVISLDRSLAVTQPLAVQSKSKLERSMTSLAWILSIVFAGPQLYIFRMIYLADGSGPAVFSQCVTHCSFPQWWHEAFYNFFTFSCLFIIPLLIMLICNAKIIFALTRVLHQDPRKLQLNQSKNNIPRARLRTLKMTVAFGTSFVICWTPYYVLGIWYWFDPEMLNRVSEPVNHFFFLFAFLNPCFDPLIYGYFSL
Put plainly: LHRH rat pituitary receptor binding. As to conditions: Table 1: compounds of formula (V), by n and R1. As to the method: Representative compounds of the present invention were evaluated in vitro for potency against for LHRH rat pituitary receptor binding [pK, ]. Methods for the assay procedures are 10 described in […] al. J Med. Chem., 32: 2340-2344 (1989). Values of pK, are the negative logarithms of the equilibrium dissociation constant of the particular antagonist test compound for the receptor binding. […] Leuprolide LHRH agonist, disclosed and claimed in U.S. Pat. No. 4,005, 063, has the structure 5-oxo-[…].
On to `COc1cc2c(cc1OC)[C@H](C)N(CCCC(CCCNC(=O)CCc1ccc(F)cc1)(c1ccccc1)c1ccccc1)CC2` [Example 3, (S) 7-[N-3-(4-Fluorophenyl)propionyl]amino-1-[N-(1,2,3,4-tetrahydro-1-methyl-6.7-dimethoxyisoquinolinyl]1-4.4-diphenylheptane hydrochloride], for which the inhibition constant (Ki) (usually the dissociation constant of the complex between target and ligand, obtained from inhibition or displacement) is 100 nM.

In turn, `CCC1c2cc(OC)c(OC)cc2CCN1CCCC(CCCNC(=O)CCc1ccc(F)cc1)(c1ccccc1)c1ccccc1` (stereo not drawn) [Example 5, 7-[N-3-(4-Fluorophenyl)Propionyl]amino-1-[N-(1,2,3,4-tetrahydro-1-ethyl-6.7-dimethoxyisoquinolinyl)]1-4.4-diphenylheptane hydrochloride] showed a Ki of 1.58 nM. This Ki lies about 63-fold lower than the previous one.

Consider `COc1cc2c(cc1OC)C(CCCCNCCC(C)C)N(CCCC(CCCNC(=O)CCc1ccc(F)cc1)(c1ccccc1)c1ccccc1)CC2` (stereo not drawn) [Example 30, 7-[N-3-(4-Fluorophenyl)propionyl]amino-1-[N-(1,2,3,4-tetrahydro-1-(4-N-isopentylamino)butyll-6,7-dimethoxyisoquinolinyl)1-4.4-diphenylheptanedihydrochloride], for which the pKI was found to be 8.00.

In turn, `COc1cc2c(cc1OC)C(c1ccc(NC(C)C)cc1)N(CCCC(CCCNC(=O)CCc1ccc(F)cc1)(c1ccccc1)c1ccccc1)CC2` (stereo not drawn) [Example 16, 7-[N-3-(4-Fluorophenyl)propionyl]amino-1-[N-(1,2,3,4-tetrahydro-1-r4-(N-isonropylamino)-phenol-6,7-dimethoxyisoguinolinyl)1-4.4-diphenylheptanedihydrochloride] gave an inhibitory constant (Ki) of 2.95 nM.

Regarding `COc1cc2c(cc1OC)C(C(C)C)N(CCCC(CCCNC(=O)CCc1ccc(F)cc1)(c1ccccc1)c1ccccc1)CC2` (stereo not drawn) [Example 6, 7-[N-3-(4-Fluorophenylpropionyl]amino-1-[N-(1,2,3,4-tetrahydro-1-isopropyl-6.7-dimethoxyisoquinolinyl)]1-4.4-diphenylheptane hydrochloride], the affinity corresponds to a Ki of 1.58 nM.

With “7-[N-3-(4-Fluorophenyl)propionyl]-1-[N-(1,2,3,4-tetrahydro-1-(4-N-phthalimidomethyl)cyclohexyl-6,7-dimethoxyisoguinolinyl)1-4.4-diphenylheptane hydrochloride [Example 36]”, the pKI worked out at 8.27.

`COc1ccc(CC2c3cc(OC)c(OC)cc3CCN2CCCC(CCCNC(=O)CCc2ccc(F)cc2)(c2ccccc2)c2ccccc2)cc1` (stereo not drawn) [Example 19, 7-[N-3-(4-Fluorophenyl)propionyl]amino-1-[N-(1,2,3,4-tetrahydro-1-(4-methoxybenzyl)-6,7-dimethoxyisoguinolinyl)1-4.4-diphenylheptane hydrochloride] showed an inhibitory constant (Ki) of 5.89 nM.

In the case of `COc1cc2c(cc1OC)C(C)N(CCC(CCCNC(=O)CCc1ccc(F)cc1)(c1ccccc1)c1ccccc1)CC2` (stereo not drawn) [Example 44], the inhibition constant (Ki) was 70.8 nM.

Consider `COc1cc2c(cc1OC)C(CCCCNC(C)=O)N(CCCC(CCCNC(=O)CCc1ccc(F)cc1)(c1ccccc1)c1ccccc1)CC2` (stereo not drawn) [Example 34, 7-[N-3-(4-FluoroTphenyl)propionyll-1-[N-(1,2,3,4-tetrahydro-1-(4-N-acetylamino)butyl)-6,7-dimethoxyisoguinolinyl)1-4,4-diphenylheptane hydrochloride], for which the Ki was 2.34 nM.

With `COc1cc2c(cc1OC)C(CCCCN(CC1CC1)CC1CC1)N(CCCC(CCCNC(=O)CCc1ccc(F)cc1)(c1ccccc1)c1ccccc1)CC2` (stereo not drawn) [Example 32, 7-[N-3-(4-Fluorophenyl)pronionyl]amino-1-N-(1,2,3,4-tetrahydro-1-(4-N. N-dicycloprovylmethylamino)butyl-6,7-dimethoxyisoguinolinyl)1-4,4-diphenylheptane dihydrochloride], the Ki is 0.631 nM.

`COc1cc2c(cc1OC)C(CCCCNC(C)C)N(CCCC(CCCNC(=O)CCc1ccc(F)cc1)(c1ccccc1)c1ccccc1)CC2` (stereo not drawn) [Example 26, 7-[N-3-(4-Fluorophenyl)propionyl]-1-[N-(1,2,3,4-tetrahydro-1-(4(N-isopropylaminobutyl)-6,7-dimethoxyisoguinolinyl)1-4.4-diohenylheptanedihydrochloride] gave an inhibitory constant (Ki) of 2.75 nM.

Compound `COc1cc2c(cc1OC)C(CCc1ccccc1)N(CCCC(CCCNC(=O)CCc1ccc(F)cc1)(c1ccccc1)c1ccccc1)CC2` (stereo not drawn) [Example 20, 7-[N-3-(4-Fluorophenyl)propionyl]amino-1-[N-(1,2,3,4-tetrahydro-1-phenethyl-6,7-dimethoxy - isoguinolinyl)]-4,4-diphenylheptane hydrochloride] showed an inhibition constant Ki of 25.1 nM.

Regarding `COc1cc2c(cc1OC)C(C1CCC1)N(CCCC(CCCNC(=O)CCc1ccc(F)cc1)(c1ccccc1)c1ccccc1)CC2` (stereo not drawn) [Example 9, 7-[N-3-(4-Fluorophenyl)propionyl]amino-1-[N-(1,2,3,4-tetrahydro-1-cyclobutyl-6,7-dimethoxnisoguinolinyl)]1-4,4-diphenalhentane hydrochloride], the pKI stood at 10.07.

In the case of `COc1cc2c(cc1OC)C(Cc1ccc(Cl)cc1)N(CCCC(CCCNC(=O)CCc1ccc(F)cc1)(c1ccccc1)c1ccccc1)CC2` (stereo not drawn) [Example 18, 7-[N-3-(4-Fluorophenyl)propionyl]amino-1-[N-(1,2,3,4-tetrahydro-1-(4-chlorobenzyl)-6,7-dimethoxyisoguinolinyl)1-4.4-diphenylheptane hydrochloride], the inhibition constant Ki is 38.9 nM. This lies in the double-digit nanomolar range.

`COc1cc2c(cc1OC)C(CCCCNC(C)c1ccccc1)N(CCCC(CCCNC(=O)CCc1ccc(F)cc1)(c1ccccc1)c1ccccc1)CC2` (stereo not drawn) [Example 31, 7-[N-3-(4-Fluorophenyl)prol)ionyl]amino-1-[N-(1,2,3,4-tetrahydro-1-(4-(N-alpha-methylbenzylamino)butyl-6,7-dimethoxyisoguinolinyl)]-4,4-diphenylheptane dihydrochloride]: the Ki is 3.98 nM.

`COc1cc2c(cc1OC)C(CNC(C)C)N(CCCC(CCCNC(=O)CCc1ccc(F)cc1)(c1ccccc1)c1ccccc1)CC2` (stereo not drawn) [Example 23, 7-[N-3-(4-Fluorophenyl)propionyll-1-[N-(1,2,3,4-tetrahydro-1-(N-isopropylaminomethyl)-6,7-dimethoxyisoguinolinyl)]-4,4-diphenylheptanedihydrochloride] showed a pKI of 8.91.

The assay is the same for the next values; noted with them: Table 2: compounds of formula (VI), by isoquinolinyl moiety R.
Compound `COc1cc2c(cc1C)CCN(CCCC(CCCNC(=O)CCc1ccc(F)cc1)(c1ccccc1)c1ccccc1)C2C` (stereo not drawn) [Example 62, 7-[N-3-(4-Fluorophenyl)propionyl]-1-[N-(1,2,3,4-tetrahydro-1.6-dimethyl-7-methoxyisoquinolinyl)1-4.4-diphenylhelptane hydrochloride] had an inhibition constant Ki of 0.501 nM.

`CC1c2cc3c(cc2CCN1CCCC(CCCNC(=O)CCc1ccc(F)cc1)(c1ccccc1)c1ccccc1)OCCO3` (stereo not drawn) [Example 49, 7-[N-3-(4-Fluorophenyl)propionyl]amino-1-[N-(1,2,3,4-tetrahydro-1-methyl-6,7-dioxane-isoguinolinyl)1-4.4-diphenylheotane hydrochloride]: the pKI came out at 7.90.

With `COc1cc2c(cc1OC)C(C)N(CCCC(CCCNC(=O)CCc1ccc(F)cc1)(c1ccccc1)c1ccccc1)C(C)C2` (stereo not drawn) [Example 65, 7-[N-3-(4-Fluorophenyl)propionyl]-1-[N-(1,2,3,4-tetrahydro-1.3-dimethyl-6,7-dimethoxyisoguinolinyl)1-4.4-diphenylheptane hydrochloride], the Ki was 0.0363 nM. This lies in the picomolar range.

With `CC(=O)Nc1ccc2c(c1)C(C)N(CCCC(CCCNC(=O)CCc1ccc(F)cc1)(c1ccccc1)c1ccccc1)CC2` (stereo not drawn) [Example 55, 7-[N-3-(4-Fluorophenyl)propionyl]-1-[N-(1,2,3,4-tetrahydro-l-methyl-7-acetylamino-isoquinolinyl)1-4.4-diphenylheptane hydrochloride], the Ki is 8.71 nM.

`COc1cc2c(cc1OC)C(C)(C)N(CCCC(CCCNC(=O)CCc1ccc(F)cc1)(c1ccccc1)c1ccccc1)CC2` [Example 67, 7-[N-3-(4-Fluorophenyl)propionyl]-1-[N-(1,2,3,4-tetrahydro-1.1-dimethyl-6,7-dimethoxyisoguinolinyl)1-4.4-diphenylheptane hydrochloride] showed a Ki of 2.51 nM.

For the compound `COC(=O)c1cc2c(cc1OC)C(C)N(CCCC(CCCNC(=O)CCc1ccc(F)cc1)(c1ccccc1)c1ccccc1)CC2` (stereo not drawn) [Example 63, 7-[N-3-(4-Fluorophenyl)propionyl]-1-[N-(1,2,3,4-tetrahydro-1-methyl-6-carbomethoxy-7-methoxyisoguinolinyl)1-4.4-diphenylhentane hydrochloride], the Ki was 6.76 nM.

As to `COc1cc2c(cc1Br)CCN(CCCC(CCCNC(=O)CCc1ccc(F)cc1)(c1ccccc1)c1ccccc1)C2C1CCC1` (stereo not drawn) [Example 64, 7-[N-3-(4-Fluorophenyl)propionyl]amino-1-[N-(1,2,3,4-tetrahydro-1-cyclobutyl-6-bromo-7-methoxyisoquinolinyl)l-4,4-diiphenylheptane hydrochloride], affinity was put at a Ki of 6.03 nM.

Staying with this assay, now noted: Table 3: compounds of formula (VII), by substituent R'.
Regarding `COc1cc2c(cc1OC)C(C)N(CCCC(CCCNC(=O)CCc1ccc(Cl)cc1)(c1ccccc1)c1ccccc1)CC2` (stereo not drawn) [Example 79, 7-[N-3-(4-chlorophenol)propionyl]amino-1-[N-(I .2.3,4-tetrahydro-1-methyl-6,7-dimethoxyisoguinolinyl)1-4,4-diphenylheptane hydrochloride], affinity was put at a Ki of 0.195 nM.
